Laboratory results published in ChEMBL document CHEMBL5465560, “Selectivity Literature for EUbOPEN Chemogenomic Library” (2024).

Tests used:
[1] = test system: Tyrosine-protein kinase ABL1 (Homo sapiens), P00519 [F317I]; conditions: at 10 µM
[2] = molecular target: Protein-tyrosine kinase 6 (Homo sapiens, UniProt Q13882); test: Selectivity interaction (KinaseProfiler screening (Millipore)) EUB0000601a PTK6; conditions: at 3 µM
[3] = molecular target: Ribosomal protein S6 kinase beta-1 (Homo sapiens, UniProt P23443); test: Selectivity interaction (ActivX KiNativ screen (kinase selectivity in THP-1 cell lysates)) EUB0000639a RPS6KB1; type: subcellular; conditions: lysate, at 0.2 µM
[4] = molecular target: Serine/threonine-protein kinase WNK1 (Homo sapiens) (UniProt Q9H4A3); test: Selectivity interaction (ActivX KiNativ screen (kinase selectivity in THP-1 cell lysates)) EUB0000639a WNK1; type: subcellular; conditions: lysate, at 5 µM
[5] = molecular target: T1, Histone-arginine methyltransferase CARM1 (Homo sapiens) (UniProt Q86X55); conditions: MM1.S, at 3 µM
T1 sequence (whole entry): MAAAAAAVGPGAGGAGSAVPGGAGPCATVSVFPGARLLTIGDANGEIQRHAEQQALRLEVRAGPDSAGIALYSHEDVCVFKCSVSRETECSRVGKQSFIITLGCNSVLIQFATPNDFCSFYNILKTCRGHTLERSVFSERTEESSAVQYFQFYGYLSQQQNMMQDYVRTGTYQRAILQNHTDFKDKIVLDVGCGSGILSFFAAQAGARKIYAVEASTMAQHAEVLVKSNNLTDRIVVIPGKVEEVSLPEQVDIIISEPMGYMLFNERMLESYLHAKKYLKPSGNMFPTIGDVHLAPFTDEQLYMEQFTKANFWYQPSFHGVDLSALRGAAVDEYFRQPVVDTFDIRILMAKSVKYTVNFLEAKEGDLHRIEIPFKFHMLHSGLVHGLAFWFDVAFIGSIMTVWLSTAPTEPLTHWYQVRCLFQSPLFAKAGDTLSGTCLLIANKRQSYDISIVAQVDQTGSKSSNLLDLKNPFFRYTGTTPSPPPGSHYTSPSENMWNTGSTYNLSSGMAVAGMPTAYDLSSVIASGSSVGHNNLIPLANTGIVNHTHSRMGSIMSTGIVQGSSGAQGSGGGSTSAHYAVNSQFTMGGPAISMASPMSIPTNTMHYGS

[6] = molecular target: T2, Serine/threonine-protein kinase PLK1 (Homo sapiens, UniProt P53350); test: Selectivity interaction (Kinase panel (Z-LYTE Assay)) EUB0001632a PLK1; conditions: at 10 µM
[7] = molecular target: MAP kinase-interacting serine/threonine-protein kinase 1 (Homo sapiens) (UniProt Q9BUB5); test: Selectivity interaction (KinomeScan (DiscoverX)) EUB0000695a MKNK1; conditions: at 100 nM
[8] = molecular target: Casein kinase I isoform epsilon (Homo sapiens, UniProt P49674); conditions: at 10 µM
[9] = molecular target: T2, Serine/threonine-protein kinase PLK1; test: Selectivity interaction (ProQinase) EUB0000171b PLK1
[10] = molecular target: T3, Non-receptor tyrosine-protein kinase TNK1 (Homo sapiens) (UniProt Q13470); test: Selectivity interaction (KinomeScan (DiscoverX)) EUB0000092b TNK1; conditions: at 10 µM
T3 sequence (whole entry): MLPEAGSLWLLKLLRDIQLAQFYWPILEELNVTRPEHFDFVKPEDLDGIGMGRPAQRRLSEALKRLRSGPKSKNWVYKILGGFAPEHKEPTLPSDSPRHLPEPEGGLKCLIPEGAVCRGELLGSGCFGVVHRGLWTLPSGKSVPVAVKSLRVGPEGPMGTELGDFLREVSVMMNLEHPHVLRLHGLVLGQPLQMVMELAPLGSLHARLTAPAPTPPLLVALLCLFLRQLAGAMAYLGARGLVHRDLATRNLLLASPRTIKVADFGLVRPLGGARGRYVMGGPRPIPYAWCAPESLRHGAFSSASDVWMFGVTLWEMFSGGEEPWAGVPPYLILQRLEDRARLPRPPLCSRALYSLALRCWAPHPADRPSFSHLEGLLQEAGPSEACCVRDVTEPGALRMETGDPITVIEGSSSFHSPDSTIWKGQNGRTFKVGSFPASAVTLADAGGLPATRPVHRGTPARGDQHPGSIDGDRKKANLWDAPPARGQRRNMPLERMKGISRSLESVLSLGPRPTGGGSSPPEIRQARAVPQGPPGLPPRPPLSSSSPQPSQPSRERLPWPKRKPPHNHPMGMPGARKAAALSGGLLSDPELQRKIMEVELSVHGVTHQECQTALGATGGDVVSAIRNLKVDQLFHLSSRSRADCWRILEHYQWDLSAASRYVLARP

[11] = test system: Epidermal growth factor receptor (Homo sapiens), P00533 [UNDEFINED MUTATION]; test: Selectivity interaction (KinomeScan (DiscoverX)) EUB0000045b EGFR; conditions: at 1 µM
[12] = molecular target: Serine/threonine-protein kinase 33 (Homo sapiens) (UniProt Q9BYT3); test: Selectivity interaction (KinomeScan (DiscoverX)) EUB0000618a STK33; conditions: at 10 µM
[13] = molecular target: RAF proto-oncogene serine/threonine-protein kinase (Homo sapiens) (UniProt P04049); test: Selectivity interaction (KinomeScan (DiscoverX)) EUB0000607a RAF1; conditions: at 10 µM
RAF proto-oncogene serine/threonine-protein kinase (Homo sapiens), sequence (P04049 whole entry): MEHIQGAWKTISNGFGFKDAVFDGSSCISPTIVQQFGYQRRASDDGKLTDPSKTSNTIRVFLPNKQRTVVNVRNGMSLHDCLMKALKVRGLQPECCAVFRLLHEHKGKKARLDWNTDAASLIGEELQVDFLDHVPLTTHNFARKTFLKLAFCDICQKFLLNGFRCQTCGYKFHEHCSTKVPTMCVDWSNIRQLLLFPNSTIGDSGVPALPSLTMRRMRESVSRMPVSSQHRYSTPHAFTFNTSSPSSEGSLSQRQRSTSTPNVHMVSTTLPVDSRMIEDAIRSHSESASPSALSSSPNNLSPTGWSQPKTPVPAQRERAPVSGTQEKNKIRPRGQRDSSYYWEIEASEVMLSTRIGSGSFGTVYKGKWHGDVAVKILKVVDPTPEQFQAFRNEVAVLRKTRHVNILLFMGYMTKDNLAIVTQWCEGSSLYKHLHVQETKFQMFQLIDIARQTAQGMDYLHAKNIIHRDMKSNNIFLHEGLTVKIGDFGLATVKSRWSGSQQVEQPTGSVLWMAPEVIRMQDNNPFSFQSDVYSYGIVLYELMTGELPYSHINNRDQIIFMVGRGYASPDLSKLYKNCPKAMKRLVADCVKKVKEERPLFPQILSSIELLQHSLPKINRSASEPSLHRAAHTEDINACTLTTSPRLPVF

T2 sequence (P53350 whole entry): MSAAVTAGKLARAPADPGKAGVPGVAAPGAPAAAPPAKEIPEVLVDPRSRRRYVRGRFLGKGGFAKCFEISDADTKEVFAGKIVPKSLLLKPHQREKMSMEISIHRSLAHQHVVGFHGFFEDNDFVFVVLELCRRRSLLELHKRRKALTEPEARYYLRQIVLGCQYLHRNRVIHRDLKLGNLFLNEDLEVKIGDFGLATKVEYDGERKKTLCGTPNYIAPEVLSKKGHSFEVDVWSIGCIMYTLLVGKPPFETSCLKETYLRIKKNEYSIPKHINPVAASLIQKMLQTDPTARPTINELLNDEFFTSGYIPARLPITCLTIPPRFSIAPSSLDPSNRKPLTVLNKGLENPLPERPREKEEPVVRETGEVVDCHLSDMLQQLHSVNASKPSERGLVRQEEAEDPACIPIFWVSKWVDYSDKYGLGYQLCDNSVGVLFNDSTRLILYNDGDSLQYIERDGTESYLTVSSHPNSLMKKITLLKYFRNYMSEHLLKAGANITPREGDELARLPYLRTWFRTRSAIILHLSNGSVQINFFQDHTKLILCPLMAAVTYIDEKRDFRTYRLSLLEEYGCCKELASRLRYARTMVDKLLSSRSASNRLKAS
MAP kinase-interacting serine/threonine-protein kinase 1 (Homo sapiens), sequence (Q9BUB5 whole entry, looked up, canonical isoform): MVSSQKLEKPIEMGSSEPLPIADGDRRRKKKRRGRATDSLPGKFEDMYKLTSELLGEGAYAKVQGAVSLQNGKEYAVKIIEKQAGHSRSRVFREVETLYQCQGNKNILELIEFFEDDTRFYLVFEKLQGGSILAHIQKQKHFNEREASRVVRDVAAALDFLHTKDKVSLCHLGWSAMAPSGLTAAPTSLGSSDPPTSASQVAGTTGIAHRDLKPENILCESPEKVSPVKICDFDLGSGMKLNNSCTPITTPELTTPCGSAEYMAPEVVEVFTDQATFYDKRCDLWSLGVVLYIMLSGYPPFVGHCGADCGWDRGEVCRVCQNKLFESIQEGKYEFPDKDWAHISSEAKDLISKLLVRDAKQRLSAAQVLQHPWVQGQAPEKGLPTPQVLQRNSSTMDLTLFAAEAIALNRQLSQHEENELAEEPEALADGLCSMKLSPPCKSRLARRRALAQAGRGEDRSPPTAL
Ribosomal protein S6 kinase beta-1, sequence (P23443 whole entry, looked up): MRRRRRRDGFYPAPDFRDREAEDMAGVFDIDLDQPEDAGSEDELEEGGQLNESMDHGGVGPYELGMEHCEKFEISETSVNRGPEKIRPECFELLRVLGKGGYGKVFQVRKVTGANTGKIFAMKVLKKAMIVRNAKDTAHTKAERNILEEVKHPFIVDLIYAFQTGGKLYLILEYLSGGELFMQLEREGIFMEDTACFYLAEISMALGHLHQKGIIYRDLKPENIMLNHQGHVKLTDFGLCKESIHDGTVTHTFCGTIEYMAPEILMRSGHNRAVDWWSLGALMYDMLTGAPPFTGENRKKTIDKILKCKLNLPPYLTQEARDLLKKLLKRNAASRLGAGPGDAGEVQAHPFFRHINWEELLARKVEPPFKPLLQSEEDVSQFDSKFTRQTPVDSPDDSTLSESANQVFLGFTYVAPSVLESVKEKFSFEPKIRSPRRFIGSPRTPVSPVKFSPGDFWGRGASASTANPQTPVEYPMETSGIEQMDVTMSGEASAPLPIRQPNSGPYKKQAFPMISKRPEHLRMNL
Epidermal growth factor receptor (Homo sapiens), P00533 [UNDEFINED MUTATION], sequence (P00533 whole entry, looked up, change not shown): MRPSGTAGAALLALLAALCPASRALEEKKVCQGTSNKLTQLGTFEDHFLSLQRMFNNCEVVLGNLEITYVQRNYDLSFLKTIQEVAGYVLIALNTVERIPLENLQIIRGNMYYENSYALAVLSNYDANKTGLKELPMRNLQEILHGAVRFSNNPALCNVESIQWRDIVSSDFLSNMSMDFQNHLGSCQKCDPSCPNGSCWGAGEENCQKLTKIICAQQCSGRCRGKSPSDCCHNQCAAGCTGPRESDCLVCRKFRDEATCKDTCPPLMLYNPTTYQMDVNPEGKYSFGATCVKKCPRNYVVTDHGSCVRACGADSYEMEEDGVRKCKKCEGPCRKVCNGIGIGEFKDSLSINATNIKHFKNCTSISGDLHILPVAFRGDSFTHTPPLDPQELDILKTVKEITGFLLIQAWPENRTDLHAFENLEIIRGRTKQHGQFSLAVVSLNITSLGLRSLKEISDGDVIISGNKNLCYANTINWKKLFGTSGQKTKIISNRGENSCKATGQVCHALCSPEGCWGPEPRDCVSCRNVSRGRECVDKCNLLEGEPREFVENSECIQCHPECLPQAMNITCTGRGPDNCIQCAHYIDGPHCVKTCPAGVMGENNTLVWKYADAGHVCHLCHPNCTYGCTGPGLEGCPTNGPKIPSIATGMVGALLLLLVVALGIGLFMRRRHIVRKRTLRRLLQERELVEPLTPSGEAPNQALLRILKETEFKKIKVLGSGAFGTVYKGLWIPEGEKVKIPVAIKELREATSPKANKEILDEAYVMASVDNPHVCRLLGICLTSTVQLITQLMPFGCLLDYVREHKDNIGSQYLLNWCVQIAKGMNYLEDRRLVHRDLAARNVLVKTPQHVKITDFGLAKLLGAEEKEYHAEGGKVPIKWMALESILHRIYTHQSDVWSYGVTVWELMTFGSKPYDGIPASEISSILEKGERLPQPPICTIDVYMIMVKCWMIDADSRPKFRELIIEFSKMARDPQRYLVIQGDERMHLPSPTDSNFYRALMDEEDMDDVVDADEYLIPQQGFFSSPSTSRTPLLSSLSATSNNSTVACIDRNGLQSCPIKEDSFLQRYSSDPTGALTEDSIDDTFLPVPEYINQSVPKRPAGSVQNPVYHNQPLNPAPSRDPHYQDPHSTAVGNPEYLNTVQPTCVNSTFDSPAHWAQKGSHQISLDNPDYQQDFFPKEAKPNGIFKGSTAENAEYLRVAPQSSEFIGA
Protein-tyrosine kinase 6, sequence (Q13882 whole entry, looked up): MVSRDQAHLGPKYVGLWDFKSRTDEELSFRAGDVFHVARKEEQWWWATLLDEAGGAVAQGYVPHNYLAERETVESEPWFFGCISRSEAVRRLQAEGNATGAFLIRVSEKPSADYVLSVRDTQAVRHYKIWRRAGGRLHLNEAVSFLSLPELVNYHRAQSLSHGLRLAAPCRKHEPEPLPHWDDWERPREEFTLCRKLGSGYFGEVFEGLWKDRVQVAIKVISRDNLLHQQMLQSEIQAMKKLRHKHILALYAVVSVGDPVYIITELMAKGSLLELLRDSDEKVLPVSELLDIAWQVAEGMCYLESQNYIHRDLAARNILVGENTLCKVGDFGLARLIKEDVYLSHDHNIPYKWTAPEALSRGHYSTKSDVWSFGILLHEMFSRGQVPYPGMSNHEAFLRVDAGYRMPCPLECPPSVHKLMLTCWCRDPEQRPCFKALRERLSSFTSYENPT
Casein kinase I isoform epsilon, sequence (P49674 whole entry, looked up, canonical isoform): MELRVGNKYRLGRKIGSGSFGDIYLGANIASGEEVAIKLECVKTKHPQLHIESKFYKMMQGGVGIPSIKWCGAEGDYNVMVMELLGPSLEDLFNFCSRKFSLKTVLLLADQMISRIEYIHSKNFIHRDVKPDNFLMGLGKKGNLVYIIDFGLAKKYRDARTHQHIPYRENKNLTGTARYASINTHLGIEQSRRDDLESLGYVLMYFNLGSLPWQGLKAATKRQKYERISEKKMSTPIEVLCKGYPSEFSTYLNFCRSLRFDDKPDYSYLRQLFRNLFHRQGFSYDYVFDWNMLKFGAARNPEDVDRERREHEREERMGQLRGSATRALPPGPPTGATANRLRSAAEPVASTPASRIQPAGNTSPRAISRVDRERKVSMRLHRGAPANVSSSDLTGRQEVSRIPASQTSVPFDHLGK
Serine/threonine-protein kinase 33 (Homo sapiens), sequence (Q9BYT3 whole entry, looked up): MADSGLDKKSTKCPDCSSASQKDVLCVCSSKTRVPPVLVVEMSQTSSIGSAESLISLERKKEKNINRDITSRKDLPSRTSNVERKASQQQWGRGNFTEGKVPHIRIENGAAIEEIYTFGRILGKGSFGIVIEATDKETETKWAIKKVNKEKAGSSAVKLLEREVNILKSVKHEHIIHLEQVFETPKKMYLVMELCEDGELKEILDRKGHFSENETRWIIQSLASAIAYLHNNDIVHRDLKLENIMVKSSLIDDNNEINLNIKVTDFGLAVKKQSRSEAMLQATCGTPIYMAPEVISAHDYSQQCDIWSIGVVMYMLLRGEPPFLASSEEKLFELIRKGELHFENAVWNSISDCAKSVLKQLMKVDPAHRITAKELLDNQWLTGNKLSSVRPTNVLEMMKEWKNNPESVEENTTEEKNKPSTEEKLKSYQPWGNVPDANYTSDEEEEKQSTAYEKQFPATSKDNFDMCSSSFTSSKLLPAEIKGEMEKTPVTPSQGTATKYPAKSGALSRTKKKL

Compound: Cc1cc([C@@H](C)Nc2ccccc2C(=O)O)c2nc(N3CCOCC3)cc(=O)n2c1 [AZD-6482]
- % of control [1]: 100%

Compound: CCc1cc(Nc2nccc(-c3c(-c4ccc(OC)c(C(=O)Nc5c(F)cccc5F)c4)nc4ccccn34)n2)c(OC)cc1N1CCC(N2CCN(S(C)(=O)=O)CC2)CC1
- % of inhibition [2]: 38%

Compound: CC[C@@H]1[C@H](F)C(=O)N[C@@H]1COc1nccc2cc(C(N)=O)c(OC)cc12 [ZIMLOVISERTIB]
- % of inhibition [3]: -6.2%
- % of inhibition [4]: -14.5%

Compound: CNCCN1CCC(c2cc(CN(C)C(=O)c3cccc(Oc4ccccc4)c3)ccn2)CC1
- % of growth rate [5]: -31%

Compound: Cn1cc(-n2cnc3c(NCc4nc5cc(Cl)c(Cl)cc5[nH]4)nc(N4CCOCC4)nc32)cn1
- % of control [6]: 1.25%

Compound: Cc1cc(F)c(C(=O)Nc2cccc(-c3nncn3C(C)C)n2)cc1-n1cnc(C2CC2)c1
- % of control [7]: 96%

Compound: COCC(=O)NC/C=C/c1ccc2ncnc(Nc3ccc(Oc4ccc(C)nc4)c(C)c3)c2c1 [CP-724714]
- % of control [8]: 100%

Compound: C=CC(=O)Nc1cccc(C(=O)Nc2ccc(Nc3cc(-c4[nH]c(SC)nc4C)ccn3)cc2)c1
- % of control ([9]; at 1 µM): 98%
- % of control ([9]; at 5 µM): 96%

Compound: CCC(=O)N1CCN(c2ccc(-n3c(=O)ccc4cnc5ccc(-c6cnc7ccccc7c6)cc5c43)cc2C(F)(F)F)CC1
- % of control [10]: 6.8%

Compound: C=CC(=O)Nc1cc(-n2c(=O)ccc3cnc4ccc(-c5ccc(NS(C)(=O)=O)cc5)cc4c32)ccc1C
- % of control [11]: 100%

Compound: O[C@H]1CC[C@H](Nc2ncc3nc(Nc4c(F)cc(F)cc4F)n([C@H]4CCOC4)c3n2)CC1
- % of control [12]: 100%

Compound: CNC(=O)Nc1ccc(-c2nc(N3CC4CCC(C3)O4)c3cnn(C4CCC5(CC4)OCCO5)c3n2)cc1
- % of control [13]: 100%
